Source: patent US10494375B2, “Antimicrobial compound” (priority 2016, dated 2019)
In brackets after ≈: the same amount, converted by molar mass. Where two headings read alike, the source gives them in different places. Where a SMILES comes first, the peptide text is derived from it. Bridges are numbered along the chain shown (N, C = ends). [ ]: non-standard residue; d: D form. The star is where a group is joined. Ileψ(thiazoline)Cys = CC[C@H](C)[C@H](N)C1=N[C@H](C(=O)*)CS1; dOrn = NCCC[C@@H](N)C(=O)O

Columns and labels:
E. faecium CCUG 37832 = test: MIC determination by standardized microdilution test in Mueller-Hinton broth; type: cell-based, Enterococcus faecium
Experimental: (§1) MBL-AB01 was tested against a panel of Gram-negative and Gram-positive pathogens. MICs for all Gram-positive and Gram-negative bacterial strains were determined by standardized microdilution tests using Mueller-Hinton broth (Acumedia). Bacterial inoculums containing 5×10^5 CFU/ml were incubated for 19 h at 35° C. in the presence of different antibiotic concentrations according to Clinical and Laboratory Standards Institute protocols. The bacterial strains were obtained from the culture collections ATCC (American Type Culture Collection), NCTC (National Collection of Type Cultures) and CCUG (culture collection university of Göteborg Sweden).

E. faecium CTC 492 = test: as above; type: cell-based, Enterococcus faecium
Experimental: as §1

M. luteus, ATCC 9341 = test: as above; type: cell-based, Micrococcus luteus
Experimental: as §1

S. aureus ATCC 29213 = test: as above; type: cell-based
Experimental: as §1

[1] = tested on: S. aureus ATCC 43300 (MRSA); test: as above; type: cell-based
Experimental: as §1

S. aureus NCTC 6571 = test: as above; type: cell-based
Experimental: as §1

[2] = tested on: IMR90 Human Lung Fibroblast (ATCC CCL-186) cells; test: In vitro cytotoxicity, CellTiter-GLO 2.0 viability assay; type: cell-based; details: IMR-90, 24 hours exposure, viability relative to control wells
Experimental: Xantolipin was obtained from Shaghai Jiao Tong University, China.
IMR90 cells were grown in DMEM—low glucose (Sigma) supplemented with 2 mM L-Glutamine, 1% MEM NEAA (Sigma), 1 mM Sodium Pyruvate, 10 mM HEPES and 100 U/mL Pen-Strep. The cells were subcultured twice or thrice a week at ratios between 1:2 and 1:8, depending on confluency. […] The microplates with cell suspension were shaked at 1600 rpm with 2.5 mm amplitude (Bioshake) for 20 seconds after seeding. […] The microplates with the IMR90 cells were incubated at 37° C. with 5% CO2 atmosphere. […] The serial dilutions with the compounds were further diluted in cell culture medium and transferred to the assay wells, giving a total DMSO concentration in the assay wells of 0.6%. After exposure, the assay plates with the IMR90 cells were further incubated at 37° C. with 5% CO2 atmosphere for 24 hours. The viability of the cells after incubation was measured using the Promega CellTiter-GLO 2.0 viability assay.

[3] = footnote of Table 1: resistance profile of Enterococcus faecium CCUG37832, read-out: Mic
[4] = Enterococcus faecium, CCUG37832, E. faecium CCUG 37832 (multiresistant, vanA-positive clinical isolate), 19 h at 35° C., read-out: MIC
[5] = Enterococcus faecium, CTC492, E. faecium CTC 492, 19 h at 35° C., read-out: MIC
[6] = Micrococcus luteus, ATCC9341, M. luteus, ATCC 9341, 19 h at 35° C., read-out: MIC
[7] = Staphylococcus aureus, ATCC29213, S. aureus ATCC 29213, 19 h at 35° C., read-out: MIC
[8] = Staphylococcus aureus, S. aureus ATCC 43300 (MRSA), 19 h at 35° C., read-out: MIC
[9] = Staphylococcus aureus, NCTC6571, S. aureus NCTC 6571, 19 h at 35° C., read-out: MIC

`CC1(C)S[C@@H]2[C@H](NC(=O)[C@H](N)c3ccccc3)C(=O)N2[C@H]1C(=O)O` [Ampicillin] was tested, and the MIC (E. faecium CCUG 37832; [3]) was 20 µg/mL (≈ 57.2 µM).
For `CN[C@@H]1[C@@H](O[C@H]2O[C@H](CO)[C@@H](N)[C@H](O)[C@H]2O)OC2C[C@@H](N)[C@@H](O[C@H]3[C@H](O)[C@@H](O)[C@H](N)C[C@@H]3N)OC2[C@@H]1O` (stereo partly shown) [Apramycin], the MIC (E. faecium CCUG 37832; [3]) was over 20 µg/mL.
In the case of `CC[C@H](C)[C@H](N)C1=N[C@H](C(=O)N[C@@H](CC(C)C)C(=O)N[C@H](CCC(=O)O)C(=O)N[C@H](C(=O)N[C@H]2CCCCNC(=O)[C@H](CC(N)=O)NC(=O)[C@@H](CC(=O)O)NC(=O)[C@H](Cc3cnc[nH]3)NC(=O)[C@@H](Cc3ccccc3)NC(=O)[C@H]([C@@H](C)CC)NC(=O)[C@@H](CCCN)NC2=O)[C@@H](C)CC)CS1` [Bacitracin] ({Ileψ(thiazoline)Cys}-L[dE]IK[dOrn]I[dF]H[dD]N; lactam 4-C), the MIC (E. faecium CCUG 37832; [3]) is reported as over 8 µg/mL.
`CN(C)[C@@H]1C(O)=C(C(N)=O)C(=O)[C@@]2(O)C(O)=C3C(=O)c4c(O)ccc(Cl)c4[C@@](C)(O)[C@H]3C[C@@H]12` [Chlortetracycline] showed an MIC (E. faecium CCUG 37832; [3]) of over 10 µg/mL.
With `N[C@@H]1CON=C1O` [Cycloserine] the MIC (E. faecium CCUG 37832; [3]) was over 8 µg/mL.
`CCCCCCCCCC(=O)N[C@@H](Cc1c[nH]c2ccccc12)C(=O)N[C@H](CC(N)=O)C(=O)N[C@@H](CC(=O)O)C(=O)N[C@@H]1C(=O)NCC(=O)N[C@@H](CCCN)C(=O)N[C@@H](CC(=O)O)C(=O)N[C@H](C)C(=O)N[C@@H](CC(=O)O)C(=O)NCC(=O)N[C@H](CO)C(=O)N[C@@H]([C@H](C)CC(=O)O)C(=O)N[C@@H](CC(=O)c2ccccc2N)C(=O)O[C@@H]1C` [Daptomycin] was tested, and the MIC (E. faecium CCUG 37832; [4]) was over 16 µg/mL, the MIC (E. faecium CTC 492; [5]) was over 16 µg/mL and the MIC (M. luteus, ATCC 9341; [6]) was 0.5 µg/mL (≈ 0.309 µM). For the same molecule, the MIC (S. aureus ATCC 29213; [7]) was 4 µg/mL (≈ 2.47 µM), the MIC [1, 8] was 4 µg/mL (≈ 2.47 µM) and the MIC (S. aureus NCTC 6571; [9]) was 4 µg/mL (≈ 2.47 µM).
`CCC[C@@H]1C[C@@H](C(=O)N[C@@H]([C@H]2O[C@H](SC)[C@H](O)[C@@H](O)[C@H]2O)[C@@H](C)O)N(C)C1` [Lincomycin] was tested, and the MIC (E. faecium CCUG 37832; [3]) was over 10 µg/mL.
For `CN[C@@H]1[C@H](O)[C@H](NC)[C@H]2O[C@@]3(O)C(=O)C[C@@H](C)O[C@H]3O[C@@H]2[C@H]1O` [Spectinomycin], the MIC (E. faecium CCUG 37832; [3]) was over 8 µg/mL.
`[H]/N=C(/N)N[C@H]1[C@H](O)[C@@H](O)[C@H](O[C@@H]2O[C@@H](C)[C@](O)(C=O)[C@H]2O[C@@H]2O[C@@H](CO)[C@H](O)[C@@H](O)[C@@H]2NC)[C@@H](N/C(N)=N\[H])[C@@H]1O` [Streptomycin] gave an MIC (E. faecium CCUG 37832; [4]) of over 16 µg/mL, an MIC (E. faecium CTC 492; [5]) of over 16 µg/mL and an MIC (M. luteus, ATCC 9341; [6]) of 8 µg/mL (≈ 13.8 µM). It also gave an MIC (S. aureus ATCC 29213; [7]) of 16 µg/mL (≈ 27.5 µM), an MIC [1, 8] of 16 µg/mL (≈ 27.5 µM) and an MIC (S. aureus NCTC 6571; [9]) of 16 µg/mL (≈ 27.5 µM).
Work on `CN[C@H](CC(C)C)C(=O)N[C@H]1C(=O)N[C@@H](CC(N)=O)C(=O)N[C@H]2C(=O)N[C@H]3C(=O)N[C@H](C(=O)N[C@H](C(=O)O)c4cc(O)cc(O)c4-c4cc3ccc4O)[C@H](O)c3ccc(c(Cl)c3)Oc3cc2cc(c3O[C@@H]2O[C@H](CO)[C@@H](O)[C@H](O)[C@H]2O[C@H]2C[C@](C)(N)[C@H](O)[C@H](C)O2)Oc2ccc(cc2Cl)[C@H]1O` [Vancomycin] yielded an MIC (E. faecium CCUG 37832; Enterococcus faecium, CCUG37832) of over 20 µg/mL, an MIC (E. faecium CCUG 37832; Enterococcus faecium, CCUG37832, 19 h) of over 16 µg/mL and an MIC (E. faecium CTC 492; Enterococcus faecium, CTC492, 19 h) of 1 µg/mL (≈ 0.69 µM). The MIC (M. luteus, ATCC 9341; Micrococcus luteus, ATCC9341, 19 h) was 1 µg/mL (≈ 0.69 µM), the MIC (S. aureus ATCC 29213; Staphylococcus aureus, ATCC29213, 19 h) was 2 µg/mL (≈ 1.38 µM) and the MIC ([1]; Staphylococcus aureus, 19 h) was 2 µg/mL (≈ 1.38 µM). It also gave an MIC (S. aureus NCTC 6571; Staphylococcus aureus, NCTC6571, 19 h) of 2 µg/mL (≈ 1.38 µM).
Molecule `COc1c(Cl)ccc2c(=O)c3c(O)c4c5c(c3oc12)OCO[C@@H]5C[C@@H]1C(=O)c2cc(C)[nH]c(=O)c2C(=O)[C@]41O` [Xantholipin] has an EC50 [2] of 1 µg/mL (≈ 1.81 µM).
Work on `CC[C@H]1OC(=O)[C@H](C)[C@@H](O[C@H]2C[C@@](C)(OC)[C@@H](O)[C@H](C)O2)[C@H](C)[C@@H](O[C@@H]2O[C@H](C)C[C@H](N(C)C)[C@H]2O)[C@](C)(O)C[C@@H](C)C(=O)[C@H](C)[C@@H](O)[C@]1(C)O` [erythromycin] yielded an MIC (E. faecium CCUG 37832; [3]) of over 20 µg/mL.
Gentamicin showed an MIC (E. faecium CCUG 37832; E. faecium CCUG 37832 (multiresistant, vanA-positive clinical isolate), 19 h at 35° C.) of 16 µg/mL, an MIC (E. faecium CTC 492; E. faecium CTC 492, 19 h at 35° C.) of 16 µg/mL and an MIC (M. luteus, ATCC 9341; M. luteus, ATCC 9341, 19 h at 35° C.) of 4 µg/mL. For the same molecule, the MIC (S. aureus ATCC 29213; S. aureus ATCC 29213, 19 h at 35° C.) was 4 µg/mL, the MIC ([1]; S. aureus ATCC 43300 (MRSA), 19 h at 35° C.) was 16 µg/mL and the MIC (S. aureus NCTC 6571; S. aureus NCTC 6571, 19 h at 35° C.) was 4 µg/mL.
